ChEMBL document CHEMBL1201862, “PubChem BioAssay data set” (2004)
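The compound was tested at five concentrations on cells cultured in 96-well plates, with a 48-hour exposure period. GI50 = concentration required for 50% inhibition of growth.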 Active and inactive are the calls of the source. No stated cut-off is given here; in the data, active = GI50 up to about 1.1 µM and inactive = higher.

What was measured:
Assay in all cases: NCI anticancer screen, dose series, 48 h
[1] = system: KM-20L2
[2] = system: IGROV-1
[3] = system: SN12C
[4] = system: SNB-78
[5] = system: OVCAR-4
[6] = system: EKVX
[7] = system: NCI-H460
[8] = system: LOX IMVI
[9] = system: TK-10
[10] = system: LXFL 529
[11] = system: HOP-62
[12] = system: KM12
[13] = system: DMS-273
[14] = system: UACC-62
[15] = system: HCC 2998
[16] = system: SK-MEL-2
[17] = system: SF-295
[18] = system: HOP-92
[19] = system: U-251
[20] = system: HT-29
[21] = system: HCT-15
[22] = system: SK-MEL-28
[23] = system: OVCAR-8
[24] = system: ACHN
[25] = system: A549
[26] = system: OVCAR-3
[27] = system: CAKI-1
[28] = system: SW-620
[29] = system: NCI-H522
[30] = system: UACC-257
[31] = system: M14
[32] = system: DLD-1
[33] = system: SNB-19
[34] = system: SF-539
[35] = system: SK-MEL-5
[36] = system: 786-0
[37] = system: HCT-116
[38] = system: NCI-H23
[39] = system: SF-268
[40] = system: UO-31
[41] = system: SK-OV-3
[42] = system: CCRF-CEM
[43] = system: T47D
[44] = system: OVCAR-5
[45] = system: MDA-MB-435
[46] = system: NCI/ADR-RES
[47] = system: Hs-578T
[48] = system: DU-145
[49] = system: RPMI-8226
[50] = system: MCF7
[51] = system: HL-60
[52] = system: RXF 393
[53] = system: BT-549
[54] = system: SNB-75
[55] = system: A498
[56] = system: MDA-MB-231
[57] = system: MDA-N
[58] = system: PC-3
[59] = system: NCI-H226
[60] = system: MOLT-4
[61] = system: K562
[62] = system: SR
[63] = system: Malme-3M
[64] = system: COLO 205

Structure (SMILES): Cc1ccc(C(=O)NC(C)(C)C)cc1/N=N/N(C)C
- GI50 [1]: > 100 µM (inactive)
- GI50 [2]: > 100 µM (inactive)
- GI50 [3]: > 100 µM (inactive)
- GI50 [4]: > 100 µM (inactive)
- GI50 [5]: > 100 µM (inactive)
- GI50 [6]: > 100 µM (inactive)
- GI50 [7]: > 100 µM (inactive)
- GI50 [8]: > 100 µM (inactive)
- GI50 [9]: > 100 µM (inactive)
- GI50 [10]: > 100 µM (inactive)
- GI50 [11]: > 100 µM (inactive)
- GI50 [12]: > 100 µM (inactive)
- GI50 [13]: > 100 µM (inactive)
- GI50 [14]: > 100 µM (inactive)
- GI50 [15]: > 100 µM (inactive)
- GI50 [16]: > 100 µM (inactive)
- GI50 [17]: > 100 µM (inactive)
- GI50 [18]: > 100 µM (inactive)
- GI50 [19]: > 100 µM (inactive)
- GI50 [20]: > 100 µM (inactive)
- GI50 [21]: > 100 µM
- GI50 [22]: > 100 µM (inactive)
- GI50 [23]: > 100 µM (inactive)
- GI50 [24]: > 100 µM (inactive)
- GI50 [25]: > 100 µM (inactive)
- GI50 [26]: 69.5 µM (inactive)
- GI50 [27]: > 100 µM (inactive)
- GI50 [28]: > 100 µM (inactive)
- GI50 [29]: 50.5 µM (inactive)
- GI50 [30]: > 100 µM (inactive)
- GI50 [31]: > 100 µM (inactive)
- GI50 [32]: > 100 µM (inactive)
- GI50 [33]: 60.7 µM (inactive)
- GI50 [34]: > 100 µM (inactive)
- GI50 [35]: > 100 µM (inactive)
- GI50 [36]: > 100 µM (inactive)
- GI50 [37]: > 100 µM (inactive)
- GI50 [38]: > 100 µM (inactive)
- GI50 [39]: 42 µM (inactive)
- GI50 [40]: > 100 µM (inactive)

Structure (SMILES): COC(=O)CN(CC(O)C(NC(C)=O)C(O)C=O)C(=O)OCc1ccccc1 (centres undefined)
- GI50 [41]: > 100 µM (inactive)
- GI50 [42]: > 100 µM (inactive)
- GI50 [43]: > 100 µM (inactive)
- GI50 [2]: > 100 µM (inactive)
- GI50 [44]: > 100 µM (inactive)
- GI50 [3]: > 100 µM (inactive)
- GI50 [45]: > 100 µM (inactive)
- GI50 [5]: > 100 µM (inactive)
- GI50 [6]: > 100 µM (inactive)
- GI50 [7]: > 100 µM (inactive)
- GI50 [8]: > 100 µM (inactive)
- GI50 [9]: > 100 µM (inactive)
- GI50 [46]: > 100 µM (inactive)
- GI50 [47]: > 100 µM (inactive)
- GI50 [11]: > 100 µM (inactive)
- GI50 [12]: > 100 µM (inactive)
- GI50 [14]: > 100 µM (inactive)
- GI50 [15]: > 100 µM (inactive)
- GI50 [16]: > 100 µM (inactive)
- GI50 [17]: > 100 µM (inactive)
- GI50 [48]: > 100 µM (inactive)
- GI50 [18]: > 100 µM (inactive)
- GI50 [19]: > 100 µM (inactive)
- GI50 [20]: > 100 µM (inactive)
- GI50 [49]: > 100 µM (inactive)
- GI50 [50]: > 100 µM (inactive)
- GI50 [51]: > 100 µM (inactive)
- GI50 [21]: > 31.6 µM
- GI50 [52]: > 100 µM (inactive)
- GI50 [22]: > 100 µM (inactive)
- GI50 [23]: > 100 µM (inactive)
- GI50 [53]: > 100 µM (inactive)
- GI50 [24]: > 100 µM (inactive)
- GI50 [25]: > 100 µM (inactive)
- GI50 [26]: > 100 µM (inactive)
- GI50 [27]: > 100 µM (inactive)
- GI50 [54]: > 100 µM (inactive)
- GI50 [55]: > 100 µM (inactive)
- GI50 [56]: > 100 µM (inactive)
- GI50 [28]: > 100 µM (inactive)
- GI50 [57]: > 100 µM (inactive)
- GI50 [58]: > 100 µM (inactive)
- GI50 [29]: > 100 µM (inactive)
- GI50 [59]: > 100 µM (inactive)
- GI50 [60]: > 100 µM (inactive)
- GI50 [61]: > 100 µM (inactive)
- GI50 [30]: > 100 µM (inactive)
- GI50 [31]: > 100 µM (inactive)
- GI50 [62]: > 100 µM (inactive)
- GI50 [33]: > 100 µM (inactive)
- GI50 [34]: > 100 µM (inactive)
- GI50 [35]: > 100 µM (inactive)
- GI50 [36]: > 100 µM (inactive)
- GI50 [37]: > 100 µM (inactive)
- GI50 [63]: > 50.5 µM (inactive)
- GI50 [38]: > 100 µM (inactive)
- GI50 [64]: > 100 µM (inactive)
- GI50 [39]: > 100 µM (inactive)
- GI50 [40]: > 100 µM (inactive)
